Laboratory results reported in US8232289B2, “Spiropiperidine compounds as ORL-1 receptor antagonists” (Eli Lilly and Company, priority 2009, dated 2012).
Where two headings read alike, the source gives them in different places. Marks after values point to notes of the source that are not given here.

Legend:
Adrenergic Beta1 = Adrenergic Beta1 (Homo sapiens, UniProt P08588); assay: Radioligand binding selectivity, Adrenergic Beta1
From the text: (§1) Similarly, Ki for the mu, kappa and delta opioids, serotonin, dopamine, adrenergic, mucarinic, and histamine receptors, as well as binding to the norepinephrine transporter, sodium channel, chloride channel, and calcium channel may be determined using membranes expressing the desired receptor/transporter/channels and appropriate corresponding radioligand competitor molecules.

Histamine H1 = Histamine H1 (Homo sapiens, UniProt P35367); assay: Radioligand binding selectivity, Histamine H1
From the text: as §1

5-HT2A = 5-HT2A (Homo sapiens, UniProt P28223); assay: Radioligand binding selectivity, 5-HT2A
From the text: as §1

5-HT1D = 5-HT1D (Homo sapiens, UniProt P28221); assay: Radioligand binding selectivity, 5-HT1D
From the text: as §1

5-HT7 = 5-HT7 (Homo sapiens, UniProt P34969); assay: Radioligand binding selectivity, 5-HT7
From the text: as §1

5-HT1F = 5-HT1F (Homo sapiens, UniProt P30939); assay: Radioligand binding selectivity, 5-HT1F
From the text: as §1

5-HT1E = 5-HT1E (Homo sapiens, UniProt P28566); assay: Radioligand binding selectivity, 5-HT1E
From the text: as §1

Cl− channel = assay: Radioligand binding selectivity, Cl− channel
From the text: as §1

Muscarinic M2 = Muscarinic M2 (Homo sapiens, UniProt P08172); assay: Radioligand binding selectivity, Muscarinic M2
From the text: as §1

Adrenergic Alpha2 = assay: Radioligand binding selectivity, Adrenergic Alpha2
From the text: as §1

5-HT1B = 5-HT1B (Homo sapiens, UniProt P28222); assay: Radioligand binding selectivity, 5-HT1B
From the text: as §1

Adrenergic Beta2 = Adrenergic Beta2 (Homo sapiens, UniProt P07550); assay: Radioligand binding selectivity, Adrenergic Beta2
From the text: as §1

[1] = biological target: Ca+2 channel (verapamil site); assay: Radioligand binding selectivity, Ca+2 channel (verapamil site)
From the text: as §1

Adrenergic Alpha1 = assay: Radioligand binding selectivity, Adrenergic Alpha1
From the text: as §1

5-HT5 = 5-HT5 (Homo sapiens, UniProt P47898); assay: Radioligand binding selectivity, 5-HT5
From the text: as §1

D2 Dopamine = D2 Dopamine (Homo sapiens, UniProt P14416); assay: Radioligand binding selectivity, D2 Dopamine
From the text: as §1

5-HT4 = 5-HT4 (Homo sapiens, UniProt Q13639); assay: Radioligand binding selectivity, 5-HT4
From the text: as §1

Na+ channel = assay: Radioligand binding selectivity, Na+ channel
From the text: as §1

5-HT1A = 5-HT1A (Homo sapiens, UniProt P08908); assay: Radioligand binding selectivity, 5-HT1A
From the text: as §1

D1 Dopamine = D1 Dopamine (Homo sapiens, UniProt P21728); assay: Radioligand binding selectivity, D1 Dopamine
From the text: as §1

Ca+2 channel (DHP site) = assay: Radioligand binding selectivity, Ca+2 channel (DHP site)
From the text: as §1

5-HT2C = 5-HT2C (Homo sapiens, UniProt P28335); assay: Radioligand binding selectivity, 5-HT2C
From the text: as §1

Male Sprague-Dawley rats = assay: Rat dural plasma protein extravasation (PPE) model, oral dosing; type: in vivo
Description: All test compounds are prepared in a vehicle solution containing 20% Captisol in 25 mM phosphate buffer (pH 2.0). The positive control compound, sumatriptan, is dissolved in saline. Male Sprague-Dawley rats from Harlan Laboratories (250 to 350 g), that have been fasted overnight, are dosed with test compound, sumatriptan or vehicle by oral gavage (2 mL/kg). Fifty min. post-dose the rats are anesthetized with Nembutal (60 mg/kg, ip) and placed in a stereotaxic frame with the incisor bar set at −2.5 mm. Following a mid-line sagittal scalp incision, 2 pairs of bilateral holes were drilled through the skull (3.2 mm posteriorly, 1.8 and 3.8 mm laterally, all coordinates referenced to bregma). Pairs of stainless steel stimulating electrodes (Rhodes Medical Systems Inc), insulated except at the tips, are lowered through the holes in both hemispheres to a depth of 9.2 mm below the dura.
A solution of fluoroscein isothiocyanate (FITC) dye-labeled bovine serum albumin (BSA) (FITC-BSA) (20 mg/kg, iv), is injected into the femoral vein 2 minutes prior to electrical stimulation of the trigeminal ganglion to function as the marker for protein extravasation. Sixty minutes following dosing with test compound or vehicle, the left trigeminal ganglion is electrically stimulated for 5 minutes at a current intensity of 1.0 mA (5 Hz, 5 minutes duration).
Five minutes following stimulation, the rats are killed by exsanguination with 40 mL of saline which also rinses residual FITC/BSA out of the blood vessels. The top of the skull is removed to collect the dural membranes. The membrane samples are removed from both hemispheres, rinsed with water, and spread flat on microscope slides. The slides are dried for 15 minutes on a slide warmer and cover-slipped with a 70% glycerol/water solution.
A fluorescence microscope equipped with a grating monochromator and a spectrophotometer is used to quantify the amount of FITC-BSA dye in each dural sample. The microscope is equipped with a motorized stage interfaced with a personal computer. This facilitates the computer-controlled movement of the stage, with fluorescence measurements at 25 points (500 μm steps) on each dural sample. The extravasation induced by electrical stimulation of the trigeminal ganglion is an ipsilateral effect (that is occurs only on the side of the dura in which the trigeminal ganglion is stimulated). This allows the other (unstimulated) half of the dura to be used as a control. The extravasation ratio (that is the ratio of the amount of extravasation in the dura from the stimulated side compared to the unstimulated side) is calculated. Animals dosed with vehicle alone or an ineffective dose of the test compound have an extravasation ratio of approximately 2, while totally effective treatments result in a ratio of approximately 1.
Results are expressed as mean values with standard errors of the mean (±SEM). All statistical evaluations are conducting utilizing ANOVA followed by comparison to the control group by Dunnett's Method. Statistical significance is assumed when p<0.05. Statistical analyses are performed using JMP statistical analysis software (SAS Research Institute, version 6.0.2).

Sequence of Muscarinic M2 (P08172 whole entry): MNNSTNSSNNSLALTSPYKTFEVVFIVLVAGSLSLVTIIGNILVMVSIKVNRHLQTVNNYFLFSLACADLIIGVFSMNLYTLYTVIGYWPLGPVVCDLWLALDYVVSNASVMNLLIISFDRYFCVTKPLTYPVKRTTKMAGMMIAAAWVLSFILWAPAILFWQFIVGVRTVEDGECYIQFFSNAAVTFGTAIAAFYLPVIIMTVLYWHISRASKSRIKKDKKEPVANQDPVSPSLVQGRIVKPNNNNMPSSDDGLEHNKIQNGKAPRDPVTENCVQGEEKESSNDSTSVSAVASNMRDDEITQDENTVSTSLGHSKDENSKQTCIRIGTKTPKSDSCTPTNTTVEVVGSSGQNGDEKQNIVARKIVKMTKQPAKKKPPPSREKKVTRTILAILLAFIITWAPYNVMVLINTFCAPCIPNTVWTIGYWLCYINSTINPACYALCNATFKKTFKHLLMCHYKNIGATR
Sequence of 5-HT1D (P28221 whole entry, species assumed): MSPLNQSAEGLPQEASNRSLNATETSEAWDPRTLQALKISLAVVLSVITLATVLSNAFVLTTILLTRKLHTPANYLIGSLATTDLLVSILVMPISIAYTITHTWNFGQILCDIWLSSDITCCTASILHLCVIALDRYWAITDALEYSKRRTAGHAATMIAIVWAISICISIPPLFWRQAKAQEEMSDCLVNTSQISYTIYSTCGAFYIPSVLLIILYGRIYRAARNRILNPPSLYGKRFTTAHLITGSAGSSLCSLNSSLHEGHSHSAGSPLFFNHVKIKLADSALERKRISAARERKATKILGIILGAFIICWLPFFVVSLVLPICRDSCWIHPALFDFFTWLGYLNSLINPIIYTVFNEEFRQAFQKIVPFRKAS
Sequence of D1 Dopamine (P21728 whole entry): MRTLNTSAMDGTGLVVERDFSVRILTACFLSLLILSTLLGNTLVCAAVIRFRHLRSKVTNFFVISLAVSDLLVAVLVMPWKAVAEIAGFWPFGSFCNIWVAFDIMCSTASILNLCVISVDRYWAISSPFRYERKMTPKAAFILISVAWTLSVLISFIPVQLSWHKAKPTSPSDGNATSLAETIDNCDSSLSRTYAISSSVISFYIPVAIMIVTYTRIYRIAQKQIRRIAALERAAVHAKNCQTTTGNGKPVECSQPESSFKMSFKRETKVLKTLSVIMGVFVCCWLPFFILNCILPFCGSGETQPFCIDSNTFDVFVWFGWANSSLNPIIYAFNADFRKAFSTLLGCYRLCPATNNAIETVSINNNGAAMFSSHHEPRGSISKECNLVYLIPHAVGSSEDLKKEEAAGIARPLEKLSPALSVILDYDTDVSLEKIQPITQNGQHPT
Sequence of Histamine H1 (P35367 whole entry): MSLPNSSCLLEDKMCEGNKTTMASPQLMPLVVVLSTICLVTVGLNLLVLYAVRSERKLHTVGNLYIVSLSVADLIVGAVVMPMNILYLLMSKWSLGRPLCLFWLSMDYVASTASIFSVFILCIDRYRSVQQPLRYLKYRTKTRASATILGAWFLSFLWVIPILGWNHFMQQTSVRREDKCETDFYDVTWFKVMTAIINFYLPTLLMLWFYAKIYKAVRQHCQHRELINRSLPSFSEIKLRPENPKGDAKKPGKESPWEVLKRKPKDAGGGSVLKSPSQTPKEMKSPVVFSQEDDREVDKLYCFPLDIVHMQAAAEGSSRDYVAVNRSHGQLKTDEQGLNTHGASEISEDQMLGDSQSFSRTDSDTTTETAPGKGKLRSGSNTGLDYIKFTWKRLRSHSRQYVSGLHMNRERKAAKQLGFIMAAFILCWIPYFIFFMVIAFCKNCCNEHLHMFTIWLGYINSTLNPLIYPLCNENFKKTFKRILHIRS
Sequence of D2 Dopamine (P14416 whole entry): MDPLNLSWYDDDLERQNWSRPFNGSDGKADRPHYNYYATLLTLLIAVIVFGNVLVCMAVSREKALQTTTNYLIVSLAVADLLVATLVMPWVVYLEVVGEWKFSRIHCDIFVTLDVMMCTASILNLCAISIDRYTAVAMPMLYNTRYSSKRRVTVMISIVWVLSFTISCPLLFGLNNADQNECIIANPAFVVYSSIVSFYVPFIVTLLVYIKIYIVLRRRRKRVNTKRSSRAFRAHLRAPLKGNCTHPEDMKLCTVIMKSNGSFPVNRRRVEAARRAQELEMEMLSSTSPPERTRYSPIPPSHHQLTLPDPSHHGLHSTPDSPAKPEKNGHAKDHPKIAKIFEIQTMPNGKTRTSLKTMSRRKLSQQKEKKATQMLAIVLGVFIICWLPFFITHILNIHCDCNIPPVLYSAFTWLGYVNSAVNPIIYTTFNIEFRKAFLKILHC
Sequence of 5-HT5 (P47898 whole entry): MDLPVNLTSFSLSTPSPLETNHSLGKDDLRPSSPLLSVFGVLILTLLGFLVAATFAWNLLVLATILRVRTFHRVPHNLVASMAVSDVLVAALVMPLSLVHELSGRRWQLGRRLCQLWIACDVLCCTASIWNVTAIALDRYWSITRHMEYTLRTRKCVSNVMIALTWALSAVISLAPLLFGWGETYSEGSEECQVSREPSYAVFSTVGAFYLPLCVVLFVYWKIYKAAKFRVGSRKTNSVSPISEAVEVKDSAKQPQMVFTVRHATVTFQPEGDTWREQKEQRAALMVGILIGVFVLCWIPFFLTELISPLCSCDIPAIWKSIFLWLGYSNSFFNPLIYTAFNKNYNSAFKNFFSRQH
Sequence of 5-HT4 (Q13639 whole entry, species assumed): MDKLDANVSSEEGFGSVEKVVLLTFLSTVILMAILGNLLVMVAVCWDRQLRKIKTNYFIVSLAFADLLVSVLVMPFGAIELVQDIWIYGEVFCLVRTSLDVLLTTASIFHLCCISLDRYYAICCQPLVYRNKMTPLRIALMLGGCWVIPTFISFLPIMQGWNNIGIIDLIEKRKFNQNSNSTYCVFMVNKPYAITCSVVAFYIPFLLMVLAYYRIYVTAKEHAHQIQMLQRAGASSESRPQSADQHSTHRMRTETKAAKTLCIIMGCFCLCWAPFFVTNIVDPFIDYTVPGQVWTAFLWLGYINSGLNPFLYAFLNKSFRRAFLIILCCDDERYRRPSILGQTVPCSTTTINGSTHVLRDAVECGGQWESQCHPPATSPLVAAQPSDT
Sequence of 5-HT1B (P28222 whole entry, species assumed): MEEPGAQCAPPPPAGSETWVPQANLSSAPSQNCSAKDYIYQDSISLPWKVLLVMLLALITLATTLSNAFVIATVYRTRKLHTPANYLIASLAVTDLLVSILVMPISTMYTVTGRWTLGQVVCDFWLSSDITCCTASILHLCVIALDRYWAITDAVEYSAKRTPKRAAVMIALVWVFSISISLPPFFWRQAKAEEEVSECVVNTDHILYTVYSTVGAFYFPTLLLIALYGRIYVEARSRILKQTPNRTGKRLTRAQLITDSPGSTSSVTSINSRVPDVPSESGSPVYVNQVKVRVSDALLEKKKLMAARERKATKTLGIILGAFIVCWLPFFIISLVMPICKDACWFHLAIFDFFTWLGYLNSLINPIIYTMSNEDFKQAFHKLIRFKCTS
Sequence of Adrenergic Beta2 (P07550 whole entry): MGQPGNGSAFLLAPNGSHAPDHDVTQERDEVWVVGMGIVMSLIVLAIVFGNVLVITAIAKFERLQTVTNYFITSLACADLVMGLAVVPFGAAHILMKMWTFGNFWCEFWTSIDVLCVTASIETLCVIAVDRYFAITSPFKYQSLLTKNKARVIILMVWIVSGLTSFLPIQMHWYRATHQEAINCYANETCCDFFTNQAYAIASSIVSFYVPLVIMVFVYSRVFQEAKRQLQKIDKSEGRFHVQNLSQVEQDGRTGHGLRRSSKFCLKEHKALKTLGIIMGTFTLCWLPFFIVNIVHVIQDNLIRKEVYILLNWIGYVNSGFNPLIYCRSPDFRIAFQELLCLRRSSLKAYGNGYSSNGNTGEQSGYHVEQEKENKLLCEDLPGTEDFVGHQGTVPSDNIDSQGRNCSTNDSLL
Sequence of 5-HT7 (P34969 whole entry, species assumed): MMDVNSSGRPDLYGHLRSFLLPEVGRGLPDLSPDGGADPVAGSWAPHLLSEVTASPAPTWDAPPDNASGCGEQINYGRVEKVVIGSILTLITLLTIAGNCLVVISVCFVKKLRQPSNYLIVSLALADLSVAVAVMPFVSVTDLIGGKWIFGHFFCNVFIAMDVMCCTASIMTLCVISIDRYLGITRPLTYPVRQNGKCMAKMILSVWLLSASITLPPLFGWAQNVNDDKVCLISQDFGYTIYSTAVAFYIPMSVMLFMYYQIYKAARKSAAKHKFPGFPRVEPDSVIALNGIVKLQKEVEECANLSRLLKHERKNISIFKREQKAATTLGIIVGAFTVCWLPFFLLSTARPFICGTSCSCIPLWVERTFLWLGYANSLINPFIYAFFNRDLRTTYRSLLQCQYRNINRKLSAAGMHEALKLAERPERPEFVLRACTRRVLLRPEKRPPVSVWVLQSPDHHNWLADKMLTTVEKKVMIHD
Sequence of Adrenergic Beta1 (P08588 whole entry): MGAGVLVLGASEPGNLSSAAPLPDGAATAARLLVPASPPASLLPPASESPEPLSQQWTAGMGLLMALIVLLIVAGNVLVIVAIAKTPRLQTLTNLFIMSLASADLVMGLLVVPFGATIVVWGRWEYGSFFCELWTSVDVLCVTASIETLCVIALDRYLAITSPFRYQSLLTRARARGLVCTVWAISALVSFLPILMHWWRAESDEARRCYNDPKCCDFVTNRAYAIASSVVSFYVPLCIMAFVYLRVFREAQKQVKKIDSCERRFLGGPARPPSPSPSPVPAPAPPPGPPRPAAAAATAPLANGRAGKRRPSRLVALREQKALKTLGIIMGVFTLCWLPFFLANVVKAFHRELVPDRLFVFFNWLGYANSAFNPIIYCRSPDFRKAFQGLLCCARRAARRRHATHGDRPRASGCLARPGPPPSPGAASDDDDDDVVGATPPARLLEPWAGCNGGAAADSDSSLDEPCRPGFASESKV

Q: For `O=C(O)C(O)C(O)C(=O)O.OCc1nn(-c2ncccc2F)cc1CN1CCC2(CC1)OCC(F)(F)c1cc(Cl)sc12` [Example 53, [4-[(2-Chloro-4,4-difluoro-spiro[5H-thieno[2,3-c]pyran-7,4′-piperidine]-1′-yl)methyl]-1-(3-fluoro-2-pyridyl)pyrazol-3-yl]methanol (L)-Tartrate], which Ki (Adrenergic Beta1) is on record?
A: > 5 µM

Q: What about the Ki (Histamine H1) of the same compound?
A: > 5 µM

Q: And the Ki (5-HT2A)?
A: > 5 µM

Q: What about the Ki (5-HT1D) of the same compound?
A: > 8.55 µM

Q: What about the Ki (5-HT7) of the same compound?
A: > 3.98 µM

Q: And the Ki (5-HT1F)?
A: > 8.52 µM

Q: What about the Ki (5-HT1E) of the same compound?
A: > 5.37 µM

Q: What about the Ki (Cl− channel) of the same compound?
A: > 0.5 µM

Q: And the Ki (Muscarinic M2)?
A: > 5 µM

Q: And the Ki (Adrenergic Alpha2)?
A: > 5 µM

Q: What about the Ki (5-HT1B) of the same compound?
A: > 3.58 µM

Q: And the Ki (Adrenergic Beta2)?
A: > 5 µM

Q: And the Ki [1]?
A: > 5 µM

Q: And the Ki (Adrenergic Alpha1)?
A: > 5 µM

Q: And the Ki (5-HT5)?
A: > 9.09 µM

Q: And the Ki (D2 Dopamine)?
A: > 5 µM

Q: And the Ki (5-HT4)?
A: > 4.12 µM

Q: What about the Ki (Na+ channel) of the same compound?
A: > 0.5 µM

Q: What about the Ki (5-HT1A) of the same compound?
A: > 3.18 µM

Q: What about the Ki (D1 Dopamine) of the same compound?
A: > 5 µM

Q: And the Ki (Ca+2 channel (DHP site))?
A: > 5 µM

Q: What about the Ki (5-HT2C) of the same compound?
A: > 5.65 µM

Q: Which Ki (Adrenergic Beta1) does the source give for `Cc1nn(-c2ncccc2CO)cc1CN1CCC2(CC1)OCC(F)(F)c1cc(Cl)sc12` [Example 62, [2-[4-[(2-Chloro-4,4-difluoro-spiro[5H-thieno[2,3-c]pyran-7,4′-piperidine]-1′-yl)methyl]-3-methyl-pyrazol-1-yl]-3-pyridyl]methanol] here?
A: > 5 µM

Q: And the Ki (Histamine H1)?
A: > 5 µM

Q: What about the Ki (5-HT2A; read-out: Ki 5-HT2A) of the same compound?
A: > 5 µM

Q: And the Ki (5-HT1D; read-out: Ki 5-HT1D)?
A: > 8.55 µM

Q: And the Ki (5-HT7; read-out: Ki 5-HT7)?
A: > 3.98 µM

Q: And the Ki (5-HT1F; read-out: Ki 5-HT1F)?
A: > 8.52 µM

Q: What about the Ki (5-HT1E; read-out: Ki 5-HT1E) of the same compound?
A: > 5.37 µM

Q: And the Ki (Cl− channel)?
A: > 0.5 µM

Q: And the Ki (Muscarinic M2; read-out: Ki Muscarinic M2)?
A: > 0.5 µM

Q: What about the Ki (Adrenergic Alpha2) of the same compound?
A: > 5 µM

Q: What about the Ki (5-HT1B; read-out: Ki 5-HT1B) of the same compound?
A: > 3.58 µM

Q: What about the Ki (Adrenergic Beta2) of the same compound?
A: > 5 µM

Q: What about the Ki [1] of the same compound?
A: > 0.5 µM

Q: And the Ki (Adrenergic Alpha1)?
A: > 5 µM

Q: What about the Ki (5-HT5; read-out: Ki 5-HT5) of the same compound?
A: > 9.09 µM

Q: And the Ki (D2 Dopamine; read-out: Ki D2 Dopamine)?
A: > 5 µM

Q: And the Ki (5-HT4; read-out: Ki 5-HT4)?
A: > 4.12 µM

Q: And the Ki (Na+ channel)?
A: 0.235 µM

Q: What about the “Extravasation Ratio (mean)” value (Male Sprague-Dawley rats; 0.1 mg/kg po) of the same compound?
A: 1.83

Q: And the “Extravasation Ratio (mean)” value (Male Sprague-Dawley rats; 1.0 mg/kg po)?
A: 1.44*

Q: And the “Extravasation Ratio (mean)” value (Male Sprague-Dawley rats; 10.0 mg/kg po)?
A: 1.20*

Q: And the “Extravasation Ratio (mean)” value (Male Sprague-Dawley rats; 30.0 mg/kg po)?
A: 1.14*

Q: And the blockade of extravasation (Male Sprague-Dawley rats; oral dosing)?
A: effectively block extravasation in a dose dependent manner

Q: And the Ki (5-HT1A; read-out: Ki 5-HT1A)?
A: > 3.18 µM

Q: And the Ki (D1 Dopamine; read-out: Ki D1 Dopamine)?
A: > 5 µM

Q: And the Ki (Ca+2 channel (DHP site))?
A: > 5 µM

Q: And the Ki (5-HT2C; read-out: Ki 5-HT2C)?
A: > 5.65 µM
